Legend:
[1] = molecular target: T1, PS2 γ-secretase (PS2 membrane, PSEN1−/− PSEN2+/+) (Homo sapiens, UniProt P49810); experiment: cell-free cleavage of rC100sub, IP-MS of Abeta; assay type: biochemical; settings: inverse modulator (iGSM), 100 μM; substrate rC100sub (APP C100); pH 6.5, 37 °C, 2 h
T1 construct: endogenous complex in CHAPSO-solubilized membrane of HEK 293T cells expressing only PS2; with Nicastrin; Gamma-secretase subunit APH-1A; Gamma-secretase subunit PEN-2

[2] = molecular target: T2, PS1 γ-secretase (PS1 membrane, PSEN1+/+ PSEN2−/−) (Homo sapiens, UniProt P49768); experiment: cell-free cleavage of rC100sub, IP-MS of Abeta; assay type: biochemical; settings: inverse modulator (iGSM), 100 μM; substrate rC100sub (APP C100); pH 6.5, 37 °C, 2 h
T2 construct: endogenous complex in CHAPSO-solubilized membrane of HEK 293T cells expressing only PS1; with Nicastrin; Gamma-secretase subunit APH-1A; Gamma-secretase subunit PEN-2

Structure (SMILES): CC(C)OC(=O)C(C)(C)Oc1ccc(C(=O)c2ccc(Cl)cc2)cc1 [fenofibrate]
- percentage change of Aβ38 [1]: iGSMs had an enhanced response when compared to WT
- percentage change of Aβ38 [2]: the iGSM treatment resulted in only slight changes in the peptides produced

From PMC7236921, “γ-Secretase modulators exhibit selectivity for modulation of APP cleavage but inverse γ-secretase modulators do not” (Alzheimer's Research & Therapy, 2020)
